Measurements as given in paper PMC6412143 (Pharmacology Research & Perspectives, 2019).

Tests used:
TREM2 = settings: Nilotinib-treated groups, single dose
[1] = design: method as in Novartis Investigator Brochure (IB); settings: ref Novartis Investigator Brochure (IB); cited from earlier work
[2] = design: method as in Novartis Investigator Brochure (IB); settings: quoted with the PgP IC50; ref Novartis Investigator Brochure (IB); cited from earlier work
PgP = settings: read-out: PgP inhibitor IC50; ref Novartis Investigator Brochure (IB); cited from earlier work
Abl = settings: read-out: Abl IC50; stated in discussion, no reference given; cited from earlier work
total alpha-synuclein = assay: Total alpha-synuclein ELISA in CSF and plasma

## Cc1cn(-c2cc(NC(=O)c3ccc(C)c(Nc4nccc(-c5cccnc5)n4)c3)cc(C(F)(F)F)c2)cn1 [Nilotinib]
TREM2
  plasma levels of TREM2 vs placebo: not changed
[1]
  passive permeability: moderate
[2]
  Cmax: 60 nM
PgP
  IC50: […]
Abl
  IC50: […]
Total alpha-synuclein; 150 mg group, Figure 5B
  plasma total alpha-synuclein vs placebo: significantly reduced
Total alpha-synuclein; 3 hours and 4 hours
  plasma total alpha-synuclein vs placebo: No difference
Total alpha-synuclein; all Nilotinib-treated groups, 1 hour post dosing
  plasma concentration of total alpha-synuclein vs placebo: […]
